Values joined by “and” are separate entries in the source; they are usually repeats but may differ in a detail not shown here. Identical values can stand only once. Active and inactive are the calls of the source.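 Rule for the calls: active = compounds giving half or more protection of infected cells from virus-caused growth loss, again on retest; inactive = the rest.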
Test system: CEM cells HIV-1 protection, formazan growth assay
Assay: NCI AIDS Antiviral Assay
Conditions: for IC50: measured here: growth of uninfected CEM cells
How it was run: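 Protection of CEM cells against HIV-1 was scored from cell growth (soluble formazan) across five concentrations, with parallel uninfected cells. Lack of protection may reflect toxicity.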

C=CCCC12CCCC(=O)C1Sc1ccccc12 (stereo not given)
EC50: > 138 µM
IC50: 91.2 µM

O=C(OCc1ccccc1)C(Cc1ccccc1)N(Cc1ccccc1)Cc1ccccc1 (stereo not given)
EC50: > 200 µM
IC50: > 200 µM

CC(=O)/C(=C/N1CC(=O)NC1=S)C(=O)Nc1ccc([N+](=O)[O-])cc1
EC50: > 200 µM
IC50: 155 µM

COc1cc2c(cc1OC)C(Cl)C(c1ccc(Cl)c(Cl)c1)=C2Cl (stereo not given)
outcome: inactive

O=C(O)CC(Cc1ccc2c(c1)OCO2)C(=O)O (stereo not given)
EC50: > 200 µM
IC50: > 200 µM

C=CN(c1ccccc1)c1nc(=O)[nH]c(=O)[nH]1
EC50: > 200 µM
IC50: > 200 µM

CC1=C(c2ccccc2)NC(=S)C(C)C(c2ccccc2)=N1 (stereo not given)
EC50: > 200 µM
IC50: 28.2 µM

COc1ncc(C#CC(=O)c2ccccc2)c(OC)n1
EC50: > 2 µM
IC50: 0.331 µM

OCC1OC(n2cnc3c(=S)nc[nH]c32)C(O)C1O (stereo not given)
EC50: > 871 µM
IC50: 617 µM

Cn1cc(NC(=O)Nc2cc(C(=O)Nc3ccc4cc(S(=O)(=O)O)cc(S(=O)(=O)O)c4c3)n(C)c2)cc1C(=O)Nc1ccc2cc(S(=O)(=O)O)cc(S(=O)(=O)O)c2c1
EC50: 79.4 µM
IC50: > 200 µM

Nc1cc(N)c(N=Nc2ccc(/C=C\c3ccc(N=Nc4c(N)cc(N)cc4C(=O)O)cc3S(=O)(=O)O)c(S(=O)(=O)O)c2)c(C(=O)O)c1.[Zn+2]
EC50: > 30.2 µM
IC50: 23.4 µM

CCC(C(=O)NNC(=O)c1cc(OC)c(OC)c(OC)c1)c1ccccc1 (stereo not given)
EC50: > 200 µM
IC50: 195 µM

COC(=O)/C=C/C1CC(CCCOc2ccccc2)OC(c2ccccc2)O1 (stereo not given)
EC50: > 66.1 µM
IC50: > 66.1 µM

CCCCCCCCCCCCCCCCSS(C)(=O)=O
EC50: > 13.8 µM
IC50: 6.92 µM

COC(=O)CC1(C)[C@H](O)[C@H]2OC(C)(C)O[C@H]2[C@@H]1O (stereo not given in full)
EC50: > 955 µM
IC50: > 955 µM

Cc1cccc(C)c1NC(=O)C1C(=O)N(c2c(C)cccc2C)C(=O)/C1=N\NC(N)=S (stereo not given)
EC50: > 22.9 µM
IC50: > 22.9 µM

COc1cccc(/C=N/NC(=O)CN(C)C)c1O
EC50: > 200 µM
IC50: 51.3 µM

CC(=O)N1CC(C)(C)c2c(C)c(O)c(C)c(C)c21
EC50: > 200 µM
IC50: 178 µM

NC(=O)C1C2CC3C(NC(=O)C31)C2O (stereo not given)
EC50: > 200 µM
IC50: > 200 µM

c1ccc(CSc2nc3ccccc3nc2-c2cccs2)cc1
EC50: > 21.4 µM
IC50: > 21.4 µM

ClC(Cl)(Cl)C1OCOC(C(Cl)(Cl)Cl)OCO1 (stereo not given)
EC50: > 200 µM
IC50: > 200 µM

O=C1C(C=NC(=S)c2ccccc2)=C(O)c2ccccc21
EC50: > 200 µM
IC50: 166 µM

CCn1c(O)c(C=Nc2ccccc2)s/c1=N/Nc1nc(C)c(C(C)=O)s1
EC50: > 200 µM
IC50: > 200 µM

N.N.N.N.N.NC(=O)c1nn[n-]n1.[Cl-].[Co+3]
EC50: > 759 µM
IC50: > 759 µM

Nc1c(C(=O)O)c2nc3c(CO)cccc3oc-2cc1=O
EC50: > 200 µM
IC50: 2.14 µM

COc1ccc(/C=C2/C(=O)N(C(=O)c3ccc(Cl)cc3)N=C2C)cc1OC
EC50: > 35.5 µM
IC50: > 35.5 µM

Cc1cccc(NC(=O)C(=O)Cc2nc3ccccc3[nH]c2=O)c1C
outcome: inactive

Cc1[nH]cc2c1C(c1ccccc1F)=NCC(=O)N2
EC50: > 229 µM
IC50: > 229 µM

C[N+]1(CCCl)CCc2cccc([N+](=O)[O-])c2C1 (stereo not given)
EC50: > 200 µM
IC50: 97.7 µM

CC(=O)NNC(=S)/N=C\C(C(=O)c1ccccc1)=C(/O)c1ccccc1
EC50: > 200 µM
IC50: > 200 µM

O=C(O)c1[nH]c(=O)[nH]c(=O)c1C(=O)O
EC50: > 200 µM
IC50: > 200 µM

CN(C)[C@@H]1C(=O)C(C(=O)NCNCCCC(=O)O)=C(O)[C@@]2(O)C(=O)C3=C(O)c4c(O)cccc4[C@@](C)(O)[C@H]3C[C@@H]12
EC50: > 1.78 µM
IC50: > 1.78 µM

O=C(C(=NC12CC3CC(CC(C3)C1)C2)NNc1ccc([N+](=O)[O-])cc1[N+](=O)[O-])C(Br)C(=O)c1ccccc1 (stereo not given)
EC50: > 200 µM
IC50: 107 µM

Cc1ccc(S(=O)(=O)OC2C3CCC4C(COC42)C3)cc1 (stereo not given)
EC50: 79.4 µM and 77.6 µM
IC50: > 200 µM

CCCNc1c(Cl)cc(Cl)c2[nH]c3ccccc3c(=O)c12
EC50: > 200 µM
IC50: 23.4 µM

c1ccc(COc2cccc3ccc[n+](Cc4ccccc4)c23)cc1
EC50: > 251 µM
IC50: 4.68 µM

CCC1CCC2c3c([nH]c4ccccc34)C3C(=O)N(c4ccc(OC)cc4)C(=O)C3C2C1 (stereo not given)
EC50: 33.9 µM
IC50: > 200 µM

CN(C)/C=N/NC(=O)/C(C#N)=C/N(C)C
EC50: > 200 µM
IC50: > 200 µM

COc1ccc(-c2c(O)c3ccc(OC)cc3oc2=O)cc1
EC50: > 200 µM
IC50: 155 µM

CC(C)OC(=O)Nc1c([N+](=O)[O-])cc(C(F)(F)F)cc1[N+](=O)[O-]
outcome: inactive

O=C(O)[C@H](CCC[C@H]1C(=O)O[C@H](c2ccccc2)[C@H](c2ccccc2)N1C(=O)OCc1ccccc1)N[C@@H](c1ccccc1)[C@H](O)c1ccccc1
EC50: > 89.1 µM
IC50: 77.6 µM

CC1=NC(=O)CNN1C1=NNC2(C(=O)N1)c1ccccc1-c1ccccc12
EC50: > 100 µM
IC50: > 100 µM

CC(=O)[O-].CCCCCCC/C=N/[N-]C(=O)c1ccncc1.[Co+2].[OH3+].[OH3+].[OH3+].[OH3+]
EC50: > 200 µM
IC50: 115 µM

CN1CCCC(CNC2C3CC4CC(C3)CC2C4)C1 (stereo not given)
EC50: > 138 µM
IC50: > 138 µM

C[C@]1(CI)OC(=O)N2CCC[C@H]21
EC50: > 891 µM
IC50: > 891 µM

CCCNC(=S)NN1C2CSC1CS2
EC50: > 178 µM
IC50: > 178 µM

CCCCCC=C(c1cc(Br)cc(C(=O)O)c1OC)c1cc(Br)cc(C(=O)O)c1OC
EC50: > 170 µM
IC50: 166 µM

CC(=O)OC/C=C/[C@H](O[Si](C)(C)C(C)(C)C)[C@@H](O)/C=C/COC(C)=O
EC50: > 200 µM
IC50: 162 µM

C[C@H](NC1=CC(=O)C(N[C@@H](C)[C@H](O)c2ccccc2)=CC1=O)[C@H](O)c1ccccc1
EC50: > 200 µM
IC50: 141 µM

O=C(Cn1c(=O)sc2ccc(Cl)cc21)N1CCN(CCO)CC1
EC50: > 200 µM
IC50: > 200 µM

O=C1Nc2cnc(Cl)nc2Nc2ccccc21
EC50: > 75.9 µM
IC50: > 75.9 µM

COc1ccc(/C=C/C(=O)c2cc(C(C)(C)C)c(O)c(C(C)(C)C)c2)cc1
EC50: > 10.2 µM
IC50: 5.01 µM

COc1cc2nc(CCc3nc4cc(OC)c(OC)cc4[nH]3)[nH]c2cc1OC
EC50: > 17 µM
IC50: 12.3 µM

CCC[CH2][Sn]1([CH2]CCC)[O]CC(C)[O]1 (stereo not given)
outcome: inactive

CC(C)OP(=O)(OC(C)C)C(=Nc1ccc(N=C(NNc2ccc([N+](=O)[O-])cc2)P(=O)(OC(C)C)OC(C)C)cc1)NNc1ccc([N+](=O)[O-])cc1
EC50: > 3.55 µM
IC50: > 3.55 µM

OC12C3C4CC5C(C4[C@@H]1Br)C2[C@@](O)(c1c(F)c(F)c(F)c(F)c1F)C53 (stereo not given in full)
EC50: > 200 µM
IC50: 69.2 µM

COc1cc2c(c(OC)c1OC)C(c1ccc3c(c1)OCO3)C1COC(=O)C1C2 (stereo not given)
EC50: > 91.2 µM
IC50: > 91.2 µM

— PubChem BioAssay AID179 (DTP/NCI, 2004)
